ChEMBL document CHEMBL3885861, “Open TG-GATES”

Organism: Rattus norvegicus
Assay: Open TG-GATES - Regimen: Single
Assay type: toxicity, organism-based, Sprague-Dawley
Design: regimen Single, gender Male, age 6 weeks
Conditions: in vivo, po, route gavage; for APTT / Bas / Eos / Fbg / Hb / Ht / Lym / MCHC / MCV / Mono / Neu / PT / Plat / RBC / Ret / WBC: tissue Blood; for KIDNEY_L / KIDNEY_R / KIDNEY_TOTAL: tissue Kidney; for LIVER: tissue Liver; for ALP / ALT / AST / BUN / CRE / Ca / Cl / DBIL / GLC / IP / K / LDH / Na / PL / RALB / TBIL / TC / TG / TP / gamma-GTP: tissue Plasma
[1] = 50 mg/kg, 3 h, dose level Middle
[2] = 50 mg/kg, 6 h, dose level Middle
[3] = 50 mg/kg, 9 h, dose level Middle
[4] = 50 mg/kg, 24 h, dose level Middle
[5] = 150 mg/kg, 3 h, dose level High
[6] = 150 mg/kg, 6 h, dose level High
[7] = 150 mg/kg, 9 h, dose level High
[8] = 150 mg/kg, 24 h, dose level High

C1CCC(C(CC2CCCCN2)C2CCCCC2)CC1 (stereo not drawn) [PERHEXILINE]
TERMINAL_BW [1]: 207.9 g
APTT [1]: 22 s
Bas [1]: 0%
Eos [1]: 0.8%
Fbg [1]: 319.8 mg/dL
Hb [1]: 13.6 g/dL
Ht [1]: 40.9%
Lym [1]: 77.6%
MCHC [1]: 33.3%
MCV [1]: 62.5 fL
Mono [1]: 1.8%
Neu [1]: 19%
PT [1]: 15.7 s
Plat [1]: 132.9 x10_4/uL
RBC [1]: 656 x10_4/ul
Ret [1]: 6.5%
WBC [1]: 52.6 x10_2/uL
KIDNEY_L [1]: 1 g
KIDNEY_R [1]: 1 g
KIDNEY_TOTAL [1]: 2 g
LIVER [1]: 9.4 g
ALP [1]: 1767.8 IU/L
ALT [1]: 47.4 IU/L
AST [1]: 72 IU/L
BUN [1]: 10.8 mg/dL
CRE [1]: 0.1 mg/dL
Ca [1]: 10.8 mg/dL
Cl [1]: 105 meq/L
DBIL [1]: 0.004 mg/dL
GLC [1]: 164.6 mg/dL
IP [1]: 9.2 mg/dL
K [1]: 4 meq/L
LDH [1]: 190.6 IU/L
Na [1]: 140.4 meq/L
PL [1]: 140.2 mg/dL
RALB [1]: 3.1 g/dL
TBIL [1]: 0.012 mg/dL
TC [1]: 73 mg/dL
TG [1]: 65.8 mg/dL
TP [1]: 5.7 g/dL
gamma-GTP [1]: 0.8 IU/L
TERMINAL_BW [2]: 216.9 g
APTT [2]: 21.5 s
Bas [2]: 0%
Eos [2]: 1%
Fbg [2]: 325.6 mg/dL
Hb [2]: 13 g/dL
Ht [2]: 38.7%
Lym [2]: 72.8%
MCHC [2]: 33.5%
MCV [2]: 62.6 fL
Mono [2]: 2.8%
Neu [2]: 22.2%
PT [2]: 15.7 s
Plat [2]: 126.8 x10_4/uL
RBC [2]: 619.8 x10_4/ul
Ret [2]: 7.7%
WBC [2]: 94.8 x10_2/uL
KIDNEY_L [2]: 1.1 g
KIDNEY_R [2]: 1 g
KIDNEY_TOTAL [2]: 2.1 g
LIVER [2]: 9.5 g
ALP [2]: 1607.2 IU/L
ALT [2]: 40.4 IU/L
AST [2]: 69.8 IU/L
BUN [2]: 11.4 mg/dL
CRE [2]: 0.2 mg/dL
Ca [2]: 10.9 mg/dL
Cl [2]: 105.2 meq/L
DBIL [2]: 0.006 mg/dL
GLC [2]: 161 mg/dL
IP [2]: 10.1 mg/dL
K [2]: 4.5 meq/L
LDH [2]: 182.6 IU/L
Na [2]: 139 meq/L
PL [2]: 137.8 mg/dL
RALB [2]: 3 g/dL
TBIL [2]: 0.014 mg/dL
TC [2]: 69.2 mg/dL
TG [2]: 81.6 mg/dL
TP [2]: 5.6 g/dL
gamma-GTP [2]: 1 IU/L
TERMINAL_BW [3]: 203.5 g
APTT [3]: 21 s
Bas [3]: 0%
Eos [3]: 0.6%
Fbg [3]: 325.2 mg/dL
Hb [3]: 13.1 g/dL
Ht [3]: 39.1%
Lym [3]: 76.2%
MCHC [3]: 33.6%
MCV [3]: 63.4 fL
Mono [3]: 1.8%
Neu [3]: 20.2%
PT [3]: 15.5 s
Plat [3]: 130 x10_4/uL
RBC [3]: 617.6 x10_4/ul
Ret [3]: 7.4%
WBC [3]: 69.7 x10_2/uL
KIDNEY_L [3]: 1 g
KIDNEY_R [3]: 1 g
KIDNEY_TOTAL [3]: 1.9 g
LIVER [3]: 8.5 g
ALP [3]: 1598.6 IU/L
ALT [3]: 40.2 IU/L
AST [3]: 69 IU/L
BUN [3]: 11 mg/dL
CRE [3]: 0.1 mg/dL
Ca [3]: 10.8 mg/dL
Cl [3]: 105.4 meq/L
DBIL [3]: 0.002 mg/dL
GLC [3]: 169.8 mg/dL
IP [3]: 9.9 mg/dL
K [3]: 4.1 meq/L
LDH [3]: 238.2 IU/L
Na [3]: 139.2 meq/L
PL [3]: 137 mg/dL
RALB [3]: 3 g/dL
TBIL [3]: 0.018 mg/dL
TC [3]: 78.6 mg/dL
TG [3]: 39.4 mg/dL
TP [3]: 5.6 g/dL
gamma-GTP [3]: 1 IU/L
TERMINAL_BW [4]: 220 g
APTT [4]: 20.4 s
Bas [4]: 0%
Eos [4]: 1%
Fbg [4]: 309.4 mg/dL
Hb [4]: 13.5 g/dL
Ht [4]: 40.3%
Lym [4]: 82%
MCHC [4]: 33.4%
MCV [4]: 63.4 fL
Mono [4]: 2%
Neu [4]: 14%
PT [4]: 15.6 s
Plat [4]: 116.9 x10_4/uL
RBC [4]: 635.4 x10_4/ul
Ret [4]: 6.5%
WBC [4]: 92.8 x10_2/uL
KIDNEY_L [4]: 0.9 g
KIDNEY_R [4]: 1 g
KIDNEY_TOTAL [4]: 1.9 g
LIVER [4]: 10.2 g
ALP [4]: 1673.6 IU/L
ALT [4]: 43.2 IU/L
AST [4]: 72.8 IU/L
BUN [4]: 15.4 mg/dL
CRE [4]: 0.2 mg/dL
Ca [4]: 10.7 mg/dL
Cl [4]: 108 meq/L
DBIL [4]: 0 mg/dL
GLC [4]: 179.8 mg/dL
IP [4]: 7.4 mg/dL
K [4]: 4.4 meq/L
LDH [4]: 240.6 IU/L
Na [4]: 143.4 meq/L
PL [4]: 146.4 mg/dL
RALB [4]: 3.2 g/dL
TBIL [4]: 0.01 mg/dL
TC [4]: 72 mg/dL
TG [4]: 117.2 mg/dL
TP [4]: 5.6 g/dL
gamma-GTP [4]: 1 IU/L
TERMINAL_BW [5]: 215.1 g
APTT [5]: 21.8 s
Bas [5]: 0%
Eos [5]: 0.8%
Fbg [5]: 336.6 mg/dL
Hb [5]: 13.3 g/dL
Ht [5]: 40.3%
Lym [5]: 71.2%
MCHC [5]: 33.1%
MCV [5]: 65.5 fL
Mono [5]: 1.6%
Neu [5]: 24.8%
PT [5]: 16 s
Plat [5]: 129.8 x10_4/uL
RBC [5]: 616 x10_4/ul
Ret [5]: 7.7%
WBC [5]: 64 x10_2/uL
KIDNEY_L [5]: 0.9 g
KIDNEY_R [5]: 1 g
KIDNEY_TOTAL [5]: 1.9 g
LIVER [5]: 9.3 g
ALP [5]: 1714.6 IU/L
ALT [5]: 57.2 IU/L
AST [5]: 80 IU/L
BUN [5]: 11 mg/dL
CRE [5]: 0.1 mg/dL
Ca [5]: 10.6 mg/dL
Cl [5]: 104.8 meq/L
DBIL [5]: 0.002 mg/dL
GLC [5]: 173.6 mg/dL
IP [5]: 9.4 mg/dL
K [5]: 3.8 meq/L
LDH [5]: 215.2 IU/L
Na [5]: 140.2 meq/L
PL [5]: 133.2 mg/dL
RALB [5]: 3.2 g/dL
TBIL [5]: 0.016 mg/dL
TC [5]: 73.2 mg/dL
TG [5]: 46.8 mg/dL
TP [5]: 5.8 g/dL
gamma-GTP [5]: 0.8 IU/L
TERMINAL_BW [6]: 213.5 g
APTT [6]: 22.8 s
Bas [6]: 0%
Eos [6]: 1%
Fbg [6]: 336.8 mg/dL
Hb [6]: 13.1 g/dL
Ht [6]: 39.1%
Lym [6]: 68.8%
MCHC [6]: 33.5%
MCV [6]: 62.8 fL
Mono [6]: 1.8%
Neu [6]: 27.2%
PT [6]: 15.2 s
Plat [6]: 142.9 x10_4/uL
RBC [6]: 622.4 x10_4/ul
Ret [6]: 7.9%
WBC [6]: 59.6 x10_2/uL
KIDNEY_L [6]: 1 g
KIDNEY_R [6]: 1 g
KIDNEY_TOTAL [6]: 1.9 g
LIVER [6]: 9.1 g
ALP [6]: 1591 IU/L
ALT [6]: 51.8 IU/L
AST [6]: 75.8 IU/L
BUN [6]: 10.6 mg/dL
CRE [6]: 0.1 mg/dL
Ca [6]: 10.6 mg/dL
Cl [6]: 106 meq/L
DBIL [6]: 0.002 mg/dL
GLC [6]: 172.4 mg/dL
IP [6]: 9.2 mg/dL
K [6]: 4.2 meq/L
LDH [6]: 238.8 IU/L
Na [6]: 140.2 meq/L
PL [6]: 148.6 mg/dL
RALB [6]: 3.2 g/dL
TBIL [6]: 0.018 mg/dL
TC [6]: 75 mg/dL
TG [6]: 82 mg/dL
TP [6]: 5.7 g/dL
gamma-GTP [6]: 1 IU/L
TERMINAL_BW [7]: 220.6 g
APTT [7]: 21.1 s
Bas [7]: 0%
Eos [7]: 1%
Fbg [7]: 326.4 mg/dL
Hb [7]: 13.2 g/dL
Ht [7]: 39.7%
Lym [7]: 66.8%
MCHC [7]: 33.2%
MCV [7]: 63.9 fL
Mono [7]: 1.6%
Neu [7]: 30%
PT [7]: 15.5 s
Plat [7]: 128.9 x10_4/uL
RBC [7]: 622.8 x10_4/ul
Ret [7]: 7.7%
WBC [7]: 64.2 x10_2/uL
KIDNEY_L [7]: 1.1 g
KIDNEY_R [7]: 1.1 g
KIDNEY_TOTAL [7]: 2.1 g
LIVER [7]: 9.7 g
ALP [7]: 1539.6 IU/L
ALT [7]: 39 IU/L
AST [7]: 66.6 IU/L
BUN [7]: 11.4 mg/dL
CRE [7]: 0.1 mg/dL
Ca [7]: 10.9 mg/dL
Cl [7]: 105.2 meq/L
DBIL [7]: 0.004 mg/dL
GLC [7]: 171.2 mg/dL
IP [7]: 9.6 mg/dL
K [7]: 4 meq/L
LDH [7]: 217.8 IU/L
Na [7]: 138.8 meq/L
PL [7]: 121 mg/dL
RALB [7]: 3 g/dL
TBIL [7]: 0.014 mg/dL
TC [7]: 62 mg/dL
TG [7]: 48.2 mg/dL
TP [7]: 5.6 g/dL
gamma-GTP [7]: 1 IU/L
TERMINAL_BW [8]: 208.6 g
APTT [8]: 21.2 s
Bas [8]: 0%
Eos [8]: 1%
Fbg [8]: 327.6 mg/dL
Hb [8]: 13.6 g/dL
Ht [8]: 40.4%
Lym [8]: 82%
MCHC [8]: 33.6%
MCV [8]: 62.7 fL
Mono [8]: 1.2%
Neu [8]: 15.4%
PT [8]: 16.1 s
Plat [8]: 132.8 x10_4/uL
RBC [8]: 645.6 x10_4/ul
Ret [8]: 6%
WBC [8]: 65.9 x10_2/uL
KIDNEY_L [8]: 0.9 g
KIDNEY_R [8]: 1 g
KIDNEY_TOTAL [8]: 1.9 g
LIVER [8]: 9.4 g
ALP [8]: 1840.2 IU/L
ALT [8]: 50 IU/L
AST [8]: 71.6 IU/L
BUN [8]: 15.4 mg/dL
CRE [8]: 0.1 mg/dL
Ca [8]: 10.7 mg/dL
Cl [8]: 106.8 meq/L
DBIL [8]: 0 mg/dL
GLC [8]: 170.2 mg/dL
IP [8]: 7.9 mg/dL
K [8]: 4.2 meq/L
LDH [8]: 256.2 IU/L
Na [8]: 141.8 meq/L
PL [8]: 149 mg/dL
RALB [8]: 3.2 g/dL
TBIL [8]: 0.012 mg/dL
TC [8]: 79.6 mg/dL
TG [8]: 78 mg/dL
TP [8]: 5.8 g/dL
gamma-GTP [8]: 1 IU/L
